The source of these data is US10961200B2, “Small molecule inhibitors of lactate dehydrogenase and methods of use thereof” (THE UNITED STATES OF AMERICA, AS REPRESENTED BY THE …, priority 2014, dated 2021).

For assay [1], the system named is MiaPaCa2 cells. The assay is described as follows: cell-based HT lactate assay, colorimetric/fluorometric detection (inhibition of lactate production). To be noted: class symbols, 0 to 3 pluses.
Assay [2] concerns the target Human LDHA (Homo sapiens (Human), UniProt P00338). The assay is described as follows: human LDHA primary biochemical assay (resazurin/diaphorase coupled, fluorescence). The source says: Test compounds were placed in a Greiner Bio-One (Monroe, N.C.) 1536-well black solid bottom assay plate. 200 millimolar (mM) Tris HCl, pH 7.4, 100 micromolar […] EDTA and 0.01% TWEEN-20™, final concentration, was used as the assay buffer. The LDHA reagent was 2 nanomolar (nM) Human LDHA (Meridian Life Science, Inc., Memphis, Tenn.), final concentration, in assay buffer.
A general note: Alamar Blue is a resazurin reagent that responds to reducing activity.

The mark [3] stands for this setting: LDHA inhibitory activity, assay of Example 1, activity level classes.
Where [4] appears, read: LDHA inhibitory activity, activity level based on IC50 (Table 7).

Usually IC50 stands for the concentration at which inhibition is half-maximal.

Read-outs that look alike come from different tables or passages of the source.

For `NS(=O)(=O)c1ccc(Cc2c(C3CC3(F)F)nn(-c3nc(C(=O)O)cs3)c2-c2cccc(-c3ccccc3)c2)cc1` (stereo not shown) [Compound 206, 2-(5-([1,1′-biphenyl]-3-yl)-3-(2,2-difluorocyclopropyl)-4-(4-sulfamoylbenzyl)-1H-pyrazol-1-yl)thiazole-4-carboxylic acid], the IC50 is 1000 to 10000 nM in assay [1] (Homo sapiens, MIA PaCa-2) and 1000 to 57000 nM in assay [2] (read-out: Inhibitory activity IC50).
Turning to `CCOC(=O)c1csc(-n2nc(-c3ccc(F)c(C#CC4CCCC4)c3)c(Cc3ccc(S(N)(=O)=O)c(F)c3)c2CC2CC2)n1` [Compound 268], the IC50 in assay [1] and in assay [2] (setting [3]) was over 57000 nM in each case.
`N[S+](=O)([O-])c1ccc(Cc2c(-c3ccc(F)c(C#CCCO)c3)nn(-c3nc(C(=O)O)cs3)c2CC2CC2)cc1F` [Compound 409]: the concentration for half-maximal inhibition (IC50) in assay [1] (Homo sapiens, MIA PaCa-2) was 1000 to 10000 nM; in assay [2] (setting [4]), under 100 nM.
The matching figures for `NS(=O)(=O)c1ccc(Cc2c(-c3ccc(F)c(OCc4ccc(F)cc4)c3)nn(-c3nc(C(=O)O)cs3)c2CC2CC2)cc1` [Compound 527, 2-(5-(cyclopropylmethyl)-3-(4-fluoro-3-((4-fluorobenzyl)oxy)phenyl)-4-(4-sulfamoylbenzyl)-1H-pyrazol-1-yl)thiazole-4-carboxylic Acid]: 1000 to 10000 nM and under 100 nM.
On to `N[S+](=O)([O-])c1ccc(Cc2c(-c3ccc(F)c(C#CC4CCCC4)c3)nn(-c3nc(C(=O)O)cs3)c2C2CC2)cc1F` [Compound 431], for which the IC50 is under 1000 nM in assay [1] and under 100 nM in assay [2] (setting [4]).
As to `NS(=O)(=O)c1ccc(Cc2c(-c3cccc(-c4ccccc4)c3)nn(-c3nc(C(=O)O)cs3)c2CC2CC2(F)F)cc1` (stereo not shown) [Compound 207, 2-(3-([1,1′-biphenyl]-3-yl)-5-((2,2-difluorocyclopropyl)methyl)-4-(4-sulfamoylbenzyl)-1H-pyrazol-1-yl)thiazole-4-carboxylic acid], the IC50 is 1000 to 10000 nM in assay [1] (Homo sapiens, MIA PaCa-2) and under 100 nM in assay [2] (setting [3]).
`Cc1ccc(-c2cc(-c3nn(-c4nc(C(=O)O)cs4)c(CC4CC4)c3Cc3ccc(S(N)(=O)=O)c(Cl)c3)ccc2F)s1` [Compound 407]: the IC50 in assay [1] is under 1000 nM; in assay [2] (setting [4]), under 100 nM.
As for `NS(=O)(=O)c1ccc(Cc2c(-c3ccccc3)nn(-c3nc(C(=O)O)cs3)c2C#CC2CC2)cc1` [Compound 160, 2-(5-(cyclopropylethynyl)-3-phenyl-4-(4-sulfamoylbenzyl)-1H-pyrazol-1-yl)thiazole-4-carboxylic acid], the half-inhibitory concentration (IC50) in assay [1] (Homo sapiens, MIA PaCa-2) was 1000 to 10000 nM; in assay [2] (setting [3]), under 100 nM.
Regarding `NS(=O)(=O)c1ccc(Cc2c(-c3ccc(F)c(OCC4CCOC4)c3)nn(-c3nc(C(=O)O)cs3)c2CC2CC2)cc1F` (stereo not shown) [Compound 470, 2-(5-(cyclopropylmethyl)-3-(4-fluoro-3-((tetrahydrofuran-3-yl)methoxy)phenyl)-4-(3-fluoro-4-sulfamoylbenzyl)-1H-pyrazol-1-yl)thiazole-4-carboxylic acid], the IC50 in assay [1] (Homo sapiens, MIA PaCa-2) is 1000 to 10000 nM; in assay [2] (setting [4]), under 100 nM.
For the compound `NS(=O)(=O)c1ccc(Cc2c(-c3ccc(F)c(C#CC4CCOC4)c3)nn(-c3nc(C(=O)O)cs3)c2CC2CC2)cc1F` (stereo not shown) [Compound 423], the IC50 in assay [1] is under 1000 nM; in assay [2] (setting [4]) it was under 100 nM.
The matching figures for `N#CC#Cc1cc(-c2nn(-c3nc(C(=O)O)cs3)c(CC3CC3)c2Cc2ccc(S(N)(=O)=O)c(F)c2)ccc1F` [Compound 442]: 1000 to 10000 nM and under 100 nM.
As for `NS(=O)(=O)c1ccc(Cc2c(-c3ccc(F)c(C#CC4CCNCC4)c3)nn(-c3nc(C(=O)O)cs3)c2CC2CC2)cc1F` [Compound 261], the IC50 in assay [1] was 1000 to 10000 nM; in assay [2] (setting [3]), under 100 nM.
For `COc1cccc(-c2cc(-c3nn(-c4nc(C(=O)O)cs4)c(CC4CC4)c3Cc3ccc(S(N)(=O)=O)c(F)c3)ccc2F)c1` [Compound 330], in that order: under 1000 nM and under 100 nM.
Regarding `NS(=O)(=O)c1ccc(Cc2c(-c3ccc(F)c(CC4CC4)c3)nn(-c3nc(C(=O)O)cs3)c2CC2CC2)cc1F` [Compound 378], the IC50 was under 1000 nM in assay [1] and under 100 nM in assay [2] (setting [4]).
